The structures appear in SMILES notation.

Experiment [1] concerns the target T1, human vasopressin V1a receptor (Homo sapiens, UniProt P37288). Description: Human vasopressin V1a receptor binding assay. The conditions noted are these: 1321N1 cell membranes, [3H]vasopressin; read-out: Ki (nM) on hV1a cell line. The protocol: Human Vasopressin V1a Receptor Binding Assay
Cells were suspended in preparative buffer (50 mM Tris, 1 mM EDTA, 0.1 mM PMSF) and homogenized with glass homogenizing potter. To separate the raw membrane fraction two consecutive centrifugation procedures (40,000 g for 20 minutes at 4° C.) were executed, then the membrane was taken into the preparatory buffer during a final washing step, it was divided into aliquots which were stored at −80° C. until the time of measurement.
To determine the final affinity value, the results of at least two independent experiments were taken into account.
Non-specific binding values were determined in the presence of unlabeled 1.2×10^−6 M (Arg^8)-vasopressin. Samples were incubated in a total volume of 0.33 ml for 60 minutes at 27° C. Membrane-bound and free ligands were separated by filtration through a 0.5% polyethyleneimine-impregnated UniFilter® GF/B™. After drying the filter plates, 40 μl Microscint-20 (Packard) scintillation cocktail was added to the samples. Finally, radioactivity was measured using MicroBeta^2 Microplate Counter (Perkin Elmer).
During fitting, the asymptotes are not fixed. The K values (inhibition constant) are given with Cheng-Prusoff equation Ki=IC50/[1+(L/KD)] wherein [L] is the radioligand concentration used in the experiment and [KD] is the affinity of the radioactively labelled ligand for the given receptor. The KD is determined beforehand using the Scatchard curve.

Experiment [2] addresses T1, human vasopressin V1a receptor. Kind of experiment: Functional assay on human vasopressin V1a receptor expressing cell line (intracellular Ca2+ fluorescence). The conditions noted are these: for IC50: 1321N1 cells, (Arg8)-vasopressin at EC80, read-out: IC50 (nM) on hV1a cell line. The format is cell-based. How it is done: Functional Assay to Test Compounds on Human Vasopressin V1a Receptor Expressing Cell Line
The ordinary secondary messenger pathway of the measured GPCR receptor was used, the endogenous Gq-associated system.
Using 30,000 cells/plate, compounds were measured on 96-well plates. The buffer composition of the measurements was the following (expressed in mM): 140 NaCl, 5 KCl, 2 CaCl2), 2 MgCl2, 10 glucose, 10 HEPES (4-(2-hydroxyethyl)-1-piperazine-ethanesulfonic acid), 2 probenecid, pH=7.4. FLIPR Calcium 5 kit (Molecular Devices) was used as fluorescent dye, the medium was not removed prior to filling with the dye and the cells were not washed out either before or after. The incubation was performed at room temperature, the final concentration of DMSO was 1%. The materials to be measured were administered in 15 to 20 minutes pretreatment, at least two parallels of each compound in each concentration was measured.
Fluorescence signal was used to determine the intracellular Ca^2+ level, the reader was FlexStation II96. […] The fluorescence signal was logged in every 1.4 seconds for 1 minute. The reference compounds used were the following: (Arg^8)-vasopressin as agonist at concentration of EC80, determined for each plate, and relcovaptan as antagonist at 1 μM. The % of inhibition at each concentration and the IC50 value of the compounds were determined where a concentration line was also measured.
The total AVP concentration-response curve was recorded on each plate. The effect of compounds measured was expressed by percentage of relative inhibition compared to control response. […] The average IC50 values were calculated from at least three independent measurements in all cases.

T1 sequence (P37288 whole entry): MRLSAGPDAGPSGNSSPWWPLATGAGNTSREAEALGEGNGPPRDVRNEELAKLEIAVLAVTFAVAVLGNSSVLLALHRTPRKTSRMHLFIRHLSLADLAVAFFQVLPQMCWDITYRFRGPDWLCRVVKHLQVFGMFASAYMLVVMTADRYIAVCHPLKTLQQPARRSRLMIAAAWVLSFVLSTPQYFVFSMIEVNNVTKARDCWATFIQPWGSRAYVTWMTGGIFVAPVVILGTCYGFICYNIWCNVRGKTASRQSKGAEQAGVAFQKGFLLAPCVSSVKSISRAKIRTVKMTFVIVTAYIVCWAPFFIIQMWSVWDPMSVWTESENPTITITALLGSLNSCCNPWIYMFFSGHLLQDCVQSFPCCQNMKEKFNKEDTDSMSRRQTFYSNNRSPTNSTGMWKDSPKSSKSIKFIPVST

By Ki is commonly meant the equilibrium dissociation constant of an inhibitor or competing ligand from its target. The term IC50 denotes the concentration needed to halve the response being measured. Take `CCC(C)(C)C(=O)N[C@H]1Cc2cc(Cl)ccc2-n2c(nnc2[C@H]2CC[C@H](Oc3ccccn3)CC2)C1` [Example 158, N-{(5S)-8-chloro-1-[trans-4-(pyridin-2-yloxy)cyclohexyl]-5,6-dihydro-4H-[1,2,4]triazolo[4,3-a][1]benzazepin-5-yl}-2,2-dimethylbutanamide]: the Ki in experiment [1] stood at 62 nM. Further, the half-maximal inhibitory concentration (IC50) in experiment [2] is 1510 nM.

As for `C=CC(=O)N[C@H]1Cc2cc(Cl)ccc2-n2c(nnc2[C@H]2CC[C@H](Oc3ccccn3)CC2)C1` [Example 98, N-{(5S)-8-chloro-1-[trans-4-(pyridin-2-yloxy)cyclohexyl]-5,6-dihydro-4H-[1,2,4]triazolo[4,3-a][1]benzazepin-5-yl}prop-2-enamide], the Ki in experiment [1] is 2.1 nM. The IC50 in experiment [2] was 39 nM.

For `O=C1Cc2cc(Cl)ccc2-n2c(nnc2N2CCC3(CC2)OCc2ccccc23)C1` [Example 156, 8-chloro-1-(1′H,3H-spiro[2-benzofuran-1,4′-piperidin]-1′-yl)-4H-[1,2,4]triazolo[4,3-a][1]benzazepin-5(6H)-one], the Ki in experiment [1] was 0.5 nM. The IC50 in experiment [2] worked out at 9.5 nM.

On to `CC(C)(C)OC(=O)NC1Cc2cc(Cl)ccc2-n2c(nnc2N2CCC(N3CCCCC3)CC2)C1` (stereo not drawn) [Example 95, Tert-butyl [1-(1,4′-bipiperidin-1′-yl)-8-chloro-5,6-dihydro-4H-[1,2,4]triazolo[4,3-a][1]benzazepin-5-yl]carbaminate], for which the Ki in experiment [1] was 547 nM. Further, the inhibition at 1 µM in experiment [2] (read-out: % at 1 μM, printed in the column IC50 (nM) on hV1a cell line) came to 22%.

On to `CCO[C@]1(CC)CC[C@@H](c2nnc3n2-c2ccc(Cl)cc2CC(N(C)C)C3)CC1` (stereo partly drawn) [Example 245, 8-chloro-1-(trans-4-ethoxy-4-ethylcyclohexyl)-N,N-dimethyl-5,6-dihydro-4H-[1,2,4]triazolo[4,3-a][1]benzazepin-5-amine], for which the Ki in experiment [1] turned out to be 7 nM. In experiment [2], the IC50 came to 130 nM.

In the case of `CCO[C@]1(CC)CC[C@@H](c2nnc3n2-c2ccc(Cl)cc2CC(NC(C)C)C3)CC1` (stereo partly drawn) [Example 244, 8-chloro-1-(trans-4-ethoxy-4-ethylcyclohexyl)-N-(propan-2-yl)-5,6-dihydro-4H-[1,2,4]triazolo[4,3-a][1]benzazepin-5-amine], the Ki in experiment [1] is 25 nM. In experiment [2], the concentration for half-maximal inhibition (IC50) amounted to 263 nM.

On to `COC1Cc2cc(Cl)ccc2-n2c(nnc2[C@H]2CCN(Cc3ccccn3)C2)C1` (stereo partly drawn) [Example 253, 8-chloro-5-methoxy-1-[(3S)-1-(pyridin-2-ylmethyl)pyrrolidin-3-yl]-5,6-dihydro-4H-[1,2,4]triazolo[4,3-a][1]benzazepine], for which the Ki in experiment [1] was 5 nM. Further, in experiment [2], the IC50 was 66 nM.

On to `Clc1ccc2c(c1)C[C@@H](N1CCCC1)Cc1nnc([C@H]3CC[C@H](Oc4ccccn4)CC3)n1-2` [Example 174, (5R)-8-chloro-1-[trans-4-pyridin-2-loxcyclohexyl]-5-(pyrrolidin-1-yl)-5,6-dihydro-4H-[1,2,4]triazolo[4,3-a][1]benzazepine], for which, in experiment [1], the inhibitory constant (Ki) came out at 0.7 nM. The IC50 in experiment [2] stood at 3 nM.

With `CN(C)C1Cc2cc(F)ccc2-n2c(nnc2[C@H]2CC[C@H](Oc3ccccn3)CC2)C1` (stereo partly drawn) [Example 147, 8-fluoro-N,N-dimethyl-1-[trans-4-(pyridin-2-yloxy)cyclohexyl]-5,6-dihydro-4H-[1,2,4]triazolo[4,3-a][1]benzazepin-5-amine], the Ki in experiment [1] came out at 1 nM. Besides, the IC50 in experiment [2] amounted to 9.4 nM.

Take `CS(=O)(=O)CCOC1Cc2cc(Cl)ccc2-n2c(nnc2[C@H]2CC[C@H](Oc3ccccn3)CC2)C1` (stereo partly drawn) [Example 207, 8-chloro-5-[2-(methylsulfonyl)ethoxy]-1-[trans-4-(pyridin-2-yloxy)cyclohexyl]-5,6-dihydro-4H-[1,2,4]triazolo[4,3-a][1]benzazepine]: in experiment [1], the Ki amounted to 0.3 nM. The IC50 in experiment [2] came to 4.2 nM.

In the case of `O=C1Cc2cc(Cl)ccc2-n2c(nnc2[C@H]2CC[C@H](C(F)(F)F)CC2)C1` [Example 71, 8-chloro-1-[trans-4-(trifluoromethyl)cyclohexyl]-4H-[1,2,4]triazolo[4,3-a][1]benzazepin-5(6H)-one], the Ki in experiment [1] worked out at 14 nM. For the same molecule, the concentration for half-maximal inhibition (IC50) in experiment [2] was 22 nM.

For the molecule `Clc1ccc2c(c1)CC1(Cc3nnc(C4CCN(Cc5cccnc5)C4)n3-2)OCCO1` (stereo not drawn) [Example 231, 8′-chloro-1′-[1-(pyridin-3-ylmethyl)pyrrolidin-3-yl]-4′H,6′H-spiro[1,3-dioxolane-2,5′-[1,2,4]triazolo[4,3-a][1]benzazepine]], the Ki in experiment [1] amounted to 1.1 nM. Also, in experiment [2], the IC50 is 5.9 nM.

`CN(C)CC(=O)NC1Cc2cc(Cl)ccc2-n2c(nnc2[C@H]2CC[C@H](Oc3ccccn3)CC2)C1` (stereo partly drawn) [Example 17, N-{8-chloro-1-[trans-4-(pyridin-2-yloxy)cyclohexyl]-5,6-dihydro-4H-[1,2,4]triazolo[4,3-a][1]benzazepin-5-yl}-N^2,N^2-dimethylglycinamide]: in experiment [1], the Ki was found to be 2.1 nM. For the same molecule, the concentration for half-maximal inhibition (IC50) in experiment [2] stood at 35 nM.

In the case of `N[C@H]1Cc2cc(Cl)ccc2-n2c(nnc2[C@H]2CC[C@H](Oc3ccccn3)CC2)C1` [Example 7, (5S)-8-chloro-1[trans-4-(pyridin-2-yloxy)cyclohexyl]-5,6-dihydro-4H-[1,2,4]triazolo[4,3-a][1]benzazepine-5-amine], the Ki in experiment [1] came out at 2.1 nM. In addition, in experiment [2], the 50% inhibitory concentration (IC50) is 20 nM.

For the molecule `FC1(F)CCC(NC2Cc3cc(Cl)ccc3-n3c(nnc3[C@H]3CC[C@H](Oc4ccccn4)CC3)C2)CC1` (stereo partly drawn) [Example 30, 8-chloro-N-(4,4-difluorocyclohexyl)-1-[trans-4-(pyridin-2-yloxy)cyclohexyl]-5,6-dihydro-4H-[1,2,4]triazolo[4,3-a][1]benzazepine-5-amine], in experiment [1], the Ki amounted to 1.4 nM. The IC50 in experiment [2] is 15 nM.

Turning to `Clc1ccc2c(c1)CC1(Cc3nnc([C@@H]4CCN(Cc5ccccn5)C4)n3-2)OCCO1` [Example 246, 8′-chloro-1′-[(3R)-1-(pyridin-2-ylmethyl)pyrrolidin-3-yl]-4′H,6′H-spiro[1,3-dioxolane-2,5′-[1,2,4]triazolo[4,3-a][1]benzazepine]], in experiment [1], the inhibition constant (Ki) worked out at 0.5 nM. Further, in experiment [2], the IC50 stood at 3.4 nM.

Regarding `COC1Cc2cc(Cl)ccc2-n2c(nnc2[C@H]2CC[C@@](OC)(C(F)(F)F)CC2)C1` (stereo partly drawn) [Example 223, 8-chloro-5-methoxy-1-[trans-4-methoxy-4-(trifluoromethyl)cyclohexyl]-5,6-dihydro-4H-[1,2,4]triazolo[4,3-a][1]benzazepine], the Ki in experiment [1] was 1.6 nM. Also, in experiment [2], the IC50 was determined as 8.1 nM.

Regarding `CN(C)CC(=O)OC1Cc2cc(Cl)ccc2-n2c(nnc2[C@H]2CC[C@H](Oc3ccccn3)CC2)C1` (stereo partly drawn) [Example 216, 8-chloro-1-[trans-4-(pyridin-2-yloxy)cyclohexyl]-5,6-dihydro-4H-[1,2,4]triazolo[4,3-a][1]benzazepin-5-yl N,N-dimethylglycinate], the Ki in experiment [1] came to 0.7 nM. The IC50 in experiment [2] is 1.5 nM.

On to `CC(C)N(C)C1Cc2cc(Cl)ccc2-n2c(nnc2[C@H]2CC[C@H](Oc3ccccn3)CC2)C1` (stereo partly drawn) [Example 138, 8-chloro-N-methyl-N-(propan-2-yl)-1-[trans-4-(pyridin-2-yloxy)cyclohexyl]-5,6-dihydro-4H-[1,2,4]triazolo[4,3-a][1]benzazepin-5-amine], for which the Ki in experiment [1] stood at 0.2 nM. Also, the IC50 in experiment [2] is 5 nM.

Turning to `Clc1ccc2c(c1)C[C@H](N1CCCCC1)Cc1nnc([C@H]3CC[C@H](Oc4ccccn4)CC3)n1-2` [Example 127, (5S)-8-chloro-5-(piperidin-1-yl)-1-[trans-4-(pyridin-2-yloxy)cyclohexyl]-5,6-dihydro-4H-[1,2,4]triazolo[4,3-a][1]benzazepine], the Ki in experiment [1] turned out to be 2.8 nM. Besides, in experiment [2], the IC50 came out at 17 nM.

Regarding `OC1Cc2cc(F)ccc2-n2c(nnc2[C@H]2CC[C@H](Oc3ccccn3)CC2)C1` (stereo partly drawn) [Example 111, 8-fluoro-1-[trans-4-(pyridin-2-yloxy)cyclohexyl]-5,6-dihydro-4H-[1,2,4]triazolo[4,3-a][1]benzazepin-5-ol], the Ki in experiment [1] is 0.3 nM. For the same molecule, the IC50 in experiment [2] stood at 2.4 nM.
